pEC50: −log10 of the molar value. Where two headings read alike, the source gives them in different places.
How the values were obtained:
[1] = system: genotype 1b (Con-1) HCV replicon; assay: HCV Replicon Luciferase Assay (genotype 1b); format: cell-based; conditions: Hepatitis C virus, 72 h, genotype 1b replicon in Huh-7 cells, Renilla luciferase, 3 days incubation; for pEC50: read-out: EC50 1b (class); for EC50: read-out: EC50 (uM) 1b
Experimental: The cell lines used to evaluate compounds consist of a human hepatocyte derived cell line (Huh-7) that constitutively expresses a genotype 1b (Con-1) HCV replicon or a genotype 1b (Con-1) HCV replicon with an asparagine replacing the cysteine at amino acid 316, or a genotype 2a (JFH-1) replicon, containing a Renilla luciferase reporter gene. These cells were maintained in Dulbecco's modified Eagle medium (DMEM) containing 10% FBS, 100 U/mL penicillin/streptomycin and 1.0 mg/mL G418.
To evaluate compound efficacy, titrated compounds were transferred to sterile 384-well tissue culture treated plates, and the plates were seeded with HCV replicon cells (50 μL at a density of 2.4×10^3 cells/well) in DMEM containing 4% FBS (final DMSO concentration at 0.5%). After 3 days incubation at 37° C., cells were analyzed for Renilla Luciferase activity using the EnduRen substrate (Promega cat #E6485) according to the manufacturer's directions. Briefly, the EnduRen substrate was diluted in DMEM and then added to the plates to a final concentration of 7.5 μM. The plates were incubated for at least 1 h at 37° C. then read on a Viewlux Imager (PerkinElmer) using a luminescence program. The 50% effective concentration (EC50) was calculated using the four-parameter logistic formula noted above.
Compound EC50 data is expressed as A: <100 nM; B=100-1000 nM; C>1000 nM).

HCV = conditions: cited from earlier work

SMILES: CNC(=O)c1c(-c2ccc(F)cc2)oc2nc(NCC(F)(F)F)c(-c3cccc(C(=O)NC(C)(C)C(=O)OC)c3)cc12 [Compound 30009]
- pEC50 [1]: > 7.00

SMILES: CNC(=O)c1c(-c2ccc(F)cc2)oc2nc(NCC(F)(F)F)c(-c3cccc(C(=O)NC(C)(C)CO)c3)cc12 [Compound 30010]
- pEC50 [1]: > 7.00

SMILES: CNC(=O)c1c(-c2ccc(F)cc2)oc2nc(NCC(F)(F)F)c(-c3cccc(C(=O)NCC(C)(C)C)c3)cc12 [Compound 30011]
- pEC50 [1]: > 7.00

SMILES: CNC(=O)c1c(-c2ccc(F)cc2)oc2nc(NCC(F)(F)F)c(-c3cccc(C(=O)N[C@@H](CO)c4ccccc4)c3)cc12 [Compound 30012]
- pEC50 [1]: > 7.00
- EC50 [1]: 0.0239 µM

SMILES: CNC(=O)c1c(-c2ccc(F)cc2)oc2nc(NCC(F)(F)F)c(-c3cccc(C(=O)NC(C)(C)C(=O)NC)c3)cc12 [Compound 30013]
- pEC50 [1]: > 7.00

SMILES: CNC(=O)c1c(-c2ccc(F)cc2)oc2nc(NCC(F)(F)F)c(-c3cccc(C(=O)NCC(C)(C)CO)c3)cc12 [Compound 30014]
- pEC50 [1]: > 7.00

SMILES: CNC(=O)c1c(-c2ccc(F)cc2)oc2nc(NCC(F)(F)F)c(-c3cccc(C(=O)NC(C)(C)c4ccccc4)c3)cc12 [Compound 30015]
- pEC50 [1]: > 7.00
- EC50 [1]: 0.0067 µM

SMILES: CNC(=O)c1c(-c2ccc(F)cc2)oc2nc(NCC(F)(F)F)c(-c3cccc(C(=O)N[C@H](CO)c4ccccc4)c3)cc12 [Compound 30016]
- pEC50 [1]: > 7.00

SMILES: CNC(=O)c1c(-c2ccc(F)cc2)oc2nc(NCC(F)(F)F)c(-c3ccc(OC)c(C(=O)NCC(F)(F)C(F)(F)C(F)(F)F)c3)cc12 [Compound 31001]
- pEC50 [1]: > 7.00
- EC50 [1]: 0.014 µM

SMILES: CNC(=O)c1c(-c2ccc(F)cc2)oc2nc(NCC(F)(F)F)c(-c3ccc(OC)c(C(=O)NC(CF)(CF)CF)c3)cc12 [Compound 31002]
- pEC50 [1]: > 7.00

SMILES: CNC(=O)c1c(-c2ccc(F)cc2)oc2nc(NCC(F)(F)C(F)(F)F)c(-c3cccc(C(=O)NCC(C)(C)C)c3)cc12 [Compound 40001]
- pEC50 [1]: > 7.00
- EC50 [1]: 0.0982 µM

SMILES: CNC(=O)c1c(-c2ccc(F)cc2)oc2nc(NCC(F)(F)C(F)(F)F)c(-c3cccc(C(=O)NC(C)(C)C)c3)cc12 [Compound 40002]
- pEC50 [1]: > 7.00

SMILES: [2H]C([2H])([2H])C(NC(=O)c1cccc(-c2cc3c(C(=O)NC)c(-c4ccc(F)cc4)oc3nc2NCC(F)(F)C(F)(F)F)c1)(C([2H])([2H])[2H])C([2H])([2H])[2H] [Compound 40003]
- pEC50 [1]: 6.00 to 7.00

SMILES: CNC(=O)c1c(-c2ccc(F)cc2)oc2nc(NCC(F)(F)C(F)(F)F)c(-c3cccc(C(=O)NC(CF)(CF)CF)c3)cc12 [Compound 40004]
- pEC50 [1]: > 7.00

SMILES: C#CC(C)(C)NC(=O)c1cccc(-c2cc3c(C(=O)NC)c(-c4ccc(F)cc4)oc3nc2NCC(F)(F)C(F)(F)F)c1 [Compound 40005]
- pEC50 [1]: 6.00 to 7.00

SMILES: CNC(=O)c1c(-c2ccc(F)cc2)oc2nc(NCC(F)(F)C(F)(F)F)c(-c3ccc(OC)c(C(=O)NC(C)(C)C)c3)cc12 [Compound 41001]
- pEC50 [1]: > 7.00

SMILES: CNC(=O)c1c(-c2ccc(F)cc2)oc2nc(NCC(F)(F)C(F)(F)F)c(-c3ccc(OC)c(C(=O)NCC(C)(C)C)c3)cc12 [Compound 41002]
- pEC50 [1]: > 7.00

SMILES: CNC(=O)c1c(-c2ccc(F)cc2)oc2nc(NCC(F)(F)C(F)(F)F)c(-c3ccc(OC)c(C(=O)NC(CF)(CF)CF)c3)cc12 [Compound 41003]
- pEC50 [1]: > 7.00
- EC50 [1]: 0.0519 µM

SMILES: C#CC(C)(C)NC(=O)c1cc(-c2cc3c(C(=O)NC)c(-c4ccc(F)cc4)oc3nc2NCC(F)(F)C(F)(F)F)ccc1OC [Compound 41004]
- pEC50 [1]: > 7.00
- EC50 [1]: 0.0173 µM

SMILES: [2H]C([2H])([2H])C(NC(=O)c1cc(-c2cc3c(C(=O)NC)c(-c4ccc(F)cc4)oc3nc2NCC(F)(F)C(F)(F)F)ccc1OC)(C([2H])([2H])[2H])C([2H])([2H])[2H] [Compound 41005]
- pEC50 [1]: > 7.00

SMILES: CNC(=O)c1c(-c2ccc(F)cc2)oc2nc(NCCO)c(-c3cccc(C(=O)NC(C)(C)C(F)(F)F)c3)cc12 [Compound 42001]
- pEC50 [1]: > 7.00

SMILES: CNC(=O)c1c(-c2ccc(F)cc2)oc2nc(NCCO)c(-c3cccc(C(=O)NC(CF)(CF)CF)c3)cc12 [Compound 42002]
- pEC50 [1]: > 7.00

SMILES: [2H]C([2H])([2H])C(NC(=O)c1cccc(-c2cc3c(C(=O)NC)c(-c4ccc(F)cc4)oc3nc2NCCO)c1)(C([2H])([2H])[2H])C([2H])([2H])[2H] [Compound 42003]
- pEC50 [1]: > 7.00
- EC50 [1]: 0.0144 µM

SMILES: CNC(=O)c1c(-c2ccc(F)cc2)oc2cc(N(CCO)S(C)(=O)=O)c(C3CC3)cc12 [HCV-796]
- hepatic toxicity (HCV; extended dosing of the combination regimens): hepatic toxicity observed
- HCV RNA levels in patients (HCV; patients, single agent transient, more robust with interferon and ribavirin): reduce HCV RNA levels

Source: patent US9957278B2, “Furopyridine compounds for the treatment of hepatitis C” (BRISTOL-MYERS SQUIBB COMPANY, priority 2014, dated 2018)
